# Measurements published in ChEMBL document CHEMBL1135472 (J Med Chem, 2002).
# Activity calls are given as the source filed them. The calls are words filed in the database; no cut-off is given here.
# Molecular target: T1, Polyunsaturated fatty acid lipoxygenase ALOX15 (Homo sapiens) (UniProt P16050)
# T1 sequence (whole entry): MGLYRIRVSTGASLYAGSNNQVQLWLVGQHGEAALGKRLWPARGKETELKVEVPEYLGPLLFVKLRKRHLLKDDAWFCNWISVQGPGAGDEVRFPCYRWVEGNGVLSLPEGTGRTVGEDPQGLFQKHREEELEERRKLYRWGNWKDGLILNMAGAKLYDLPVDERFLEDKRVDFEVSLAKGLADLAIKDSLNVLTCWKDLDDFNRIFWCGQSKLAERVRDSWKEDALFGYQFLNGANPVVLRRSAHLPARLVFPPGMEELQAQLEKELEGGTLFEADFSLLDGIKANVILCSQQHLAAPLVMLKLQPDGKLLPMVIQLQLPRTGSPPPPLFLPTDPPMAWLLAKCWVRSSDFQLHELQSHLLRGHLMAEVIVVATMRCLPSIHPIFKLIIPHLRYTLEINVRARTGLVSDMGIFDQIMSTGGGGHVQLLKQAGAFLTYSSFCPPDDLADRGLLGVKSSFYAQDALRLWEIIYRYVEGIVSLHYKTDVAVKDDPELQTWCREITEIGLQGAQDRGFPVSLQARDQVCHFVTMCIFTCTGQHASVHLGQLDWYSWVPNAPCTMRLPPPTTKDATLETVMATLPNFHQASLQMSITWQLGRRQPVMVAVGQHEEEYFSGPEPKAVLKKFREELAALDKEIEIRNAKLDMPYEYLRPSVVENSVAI
# Assay: Inhibitory activity against human reticulocyte 15-lipoxygenase (15-HLO); NI is no inhibition
row,SMILES,inhibition
1,COc1cc(Cl)c(C[C@@H](C)[C@@H](C)Cc2cc(OC)c(OC)cc2Cl)cc1OC,inactive
2,COc1cc(Br)c(C[C@@H](C)[C@@H](C)Cc2cc(OC)c(OC)cc2Br)cc1OC,inactive
3,COc1cc(C[C@@H](C)[C@@H](C)Cc2cc(OC)c(OC)cc2C(C)=O)c(C(C)=O)cc1OC,inactive
4,COc1ccc(C[C@@H](C)[C@@H](C)Cc2ccc(OC)c(OC)c2)cc1OC,inactive

# Molecular target: T2, Polyunsaturated fatty acid lipoxygenase ALOX12 (Homo sapiens, UniProt P18054)
# T2 sequence (P18054 whole entry): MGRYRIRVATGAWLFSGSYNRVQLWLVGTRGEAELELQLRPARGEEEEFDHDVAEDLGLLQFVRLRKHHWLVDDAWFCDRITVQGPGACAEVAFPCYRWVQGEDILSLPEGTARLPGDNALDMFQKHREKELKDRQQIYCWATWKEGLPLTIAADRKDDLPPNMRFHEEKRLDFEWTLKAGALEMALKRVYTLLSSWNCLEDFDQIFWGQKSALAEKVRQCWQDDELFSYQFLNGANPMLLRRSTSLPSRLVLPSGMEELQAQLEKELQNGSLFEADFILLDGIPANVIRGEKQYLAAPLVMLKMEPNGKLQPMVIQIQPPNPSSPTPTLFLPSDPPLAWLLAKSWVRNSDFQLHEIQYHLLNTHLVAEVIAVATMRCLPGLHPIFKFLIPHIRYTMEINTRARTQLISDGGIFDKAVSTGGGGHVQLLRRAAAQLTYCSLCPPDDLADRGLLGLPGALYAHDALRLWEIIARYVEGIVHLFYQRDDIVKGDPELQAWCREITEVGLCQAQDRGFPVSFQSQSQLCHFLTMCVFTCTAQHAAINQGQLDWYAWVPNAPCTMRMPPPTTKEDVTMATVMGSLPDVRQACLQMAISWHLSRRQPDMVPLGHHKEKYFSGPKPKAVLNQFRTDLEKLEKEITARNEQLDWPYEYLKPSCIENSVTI
# Assay: Inhibitory activity against human platelet 12-lipoxygenase (12-HLO)
row,SMILES,IC50
1,C[C@H](Cc1cc(O)c(O)cc1[N+](=O)[O-])[C@@H](C)Cc1cc(O)c(O)cc1[N+](=O)[O-],360 nM
2,C[C@H](Cc1cc(O)c(O)cc1Br)[C@@H](C)Cc1cc(O)c(O)cc1Br,430 nM
3,C[C@H](Cc1cc(O)c(O)cc1Cl)[C@@H](C)Cc1cc(O)c(O)cc1Cl,360 nM
4,C[C@H](Cc1ccc(O)c(O)c1)[C@@H](C)Cc1ccc2c(c1)OC(C)(C)O2,2200 nM
5,CC(=O)c1cc(O)c(O)cc1C[C@@H](C)[C@@H](C)Cc1cc(O)c(O)cc1C(C)=O,26000 nM
6,CCc1cc(O)c(O)cc1C[C@@H](C)[C@@H](C)Cc1cc(O)c(O)cc1CC,3100 nM
7,COc1cc(C[C@@H](C)[C@@H](C)Cc2ccc(O)c(O)c2)ccc1O,14000 nM

# Molecular target: T3, Polyunsaturated fatty acid lipoxygenase ALOX12 (Homo sapiens) (UniProt P18054)
# T3 sequence (whole entry): T2 sequence (P18054 whole entry)
# Assay: percent inhibition against human platelet 12-lipoxygenase (12-HLO); NI is no inhibition
row,SMILES,inhibition
1,COc1cc(Cl)c(C[C@@H](C)[C@@H](C)Cc2cc(OC)c(OC)cc2Cl)cc1OC,inactive
2,COc1cc(Br)c(C[C@@H](C)[C@@H](C)Cc2cc(OC)c(OC)cc2Br)cc1OC,inactive
3,COc1cc(C[C@@H](C)[C@@H](C)Cc2cc(OC)c(OC)cc2C(C)=O)c(C(C)=O)cc1OC,inactive
4,COc1ccc(C[C@@H](C)[C@@H](C)Cc2ccc(OC)c(OC)c2)cc1OC,inactive

# Molecular target: T4, Seed linoleate 13S-lipoxygenase-1 (Glycine max, UniProt P08170)
# T4 sequence (P08170 whole entry): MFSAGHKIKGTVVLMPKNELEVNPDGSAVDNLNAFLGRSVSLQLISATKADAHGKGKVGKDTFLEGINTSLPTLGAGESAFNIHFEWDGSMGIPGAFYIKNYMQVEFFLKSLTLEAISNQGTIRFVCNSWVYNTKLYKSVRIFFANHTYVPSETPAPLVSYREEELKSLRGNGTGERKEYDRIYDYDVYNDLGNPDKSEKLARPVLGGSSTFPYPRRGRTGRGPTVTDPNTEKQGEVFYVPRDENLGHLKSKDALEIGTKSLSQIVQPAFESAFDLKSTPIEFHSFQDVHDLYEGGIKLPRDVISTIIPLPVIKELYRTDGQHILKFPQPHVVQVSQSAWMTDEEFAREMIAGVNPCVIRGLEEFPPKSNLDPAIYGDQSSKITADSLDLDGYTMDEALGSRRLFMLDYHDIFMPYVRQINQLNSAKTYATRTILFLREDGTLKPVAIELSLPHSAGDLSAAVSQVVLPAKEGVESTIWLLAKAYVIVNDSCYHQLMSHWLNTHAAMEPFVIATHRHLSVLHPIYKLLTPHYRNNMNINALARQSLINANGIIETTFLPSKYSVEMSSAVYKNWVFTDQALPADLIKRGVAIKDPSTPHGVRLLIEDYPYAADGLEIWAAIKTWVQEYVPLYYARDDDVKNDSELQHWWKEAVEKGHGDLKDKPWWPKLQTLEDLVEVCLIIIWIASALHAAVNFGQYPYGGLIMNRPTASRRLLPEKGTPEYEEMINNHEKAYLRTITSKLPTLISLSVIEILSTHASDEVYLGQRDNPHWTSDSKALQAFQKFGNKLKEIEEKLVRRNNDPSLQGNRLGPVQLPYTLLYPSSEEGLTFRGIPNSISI
# Assay: Inhibitory activity against soybean 1-lipoxygenase (SLO)
row,SMILES,IC50
1,C[C@H](Cc1cc(O)c(O)cc1Br)[C@@H](C)Cc1cc(O)c(O)cc1Br,57 nM
2,C[C@H](Cc1cc(O)c(O)cc1Cl)[C@@H](C)Cc1cc(O)c(O)cc1Cl,65 nM
3,C[C@H](Cc1ccc(O)c(O)c1)[C@@H](C)Cc1ccc2c(c1)OC(C)(C)O2,140 nM
4,CCc1cc(O)c(O)cc1C[C@@H](C)[C@@H](C)Cc1cc(O)c(O)cc1CC,140 nM
5,COc1cc(C[C@@H](C)[C@@H](C)Cc2ccc(O)c(O)c2)ccc1O,170 nM

# Molecular target: T5, Seed linoleate 13S-lipoxygenase-1 (Glycine max) (UniProt P08170)
# T5 sequence (whole entry): T4 sequence (P08170 whole entry)
# Assay: percent inhibition against soybean 1-lipoxygenase (SLO);NI is no inhibition
row,SMILES,inhibition
1,COc1cc(Cl)c(C[C@@H](C)[C@@H](C)Cc2cc(OC)c(OC)cc2Cl)cc1OC,inactive
2,COc1cc(Br)c(C[C@@H](C)[C@@H](C)Cc2cc(OC)c(OC)cc2Br)cc1OC,inactive
3,COc1cc(C[C@@H](C)[C@@H](C)Cc2cc(OC)c(OC)cc2C(C)=O)c(C(C)=O)cc1OC,inactive
4,COc1ccc(C[C@@H](C)[C@@H](C)Cc2ccc(OC)c(OC)c2)cc1OC,inactive

# Test system: not listed separately
# Assay: Inhibition ratio of human reticulocyte 15-lipoxygenase (15-HLO)/ human platelet 12-lipoxygenase (12-HLO); NI is no inhibition
row,SMILES,inhibition
1,COc1cc(Cl)c(C[C@@H](C)[C@@H](C)Cc2cc(OC)c(OC)cc2Cl)cc1OC,inactive
2,COc1cc(Br)c(C[C@@H](C)[C@@H](C)Cc2cc(OC)c(OC)cc2Br)cc1OC,inactive
3,COc1cc(C[C@@H](C)[C@@H](C)Cc2cc(OC)c(OC)cc2C(C)=O)c(C(C)=O)cc1OC,inactive
4,COc1ccc(C[C@@H](C)[C@@H](C)Cc2ccc(OC)c(OC)c2)cc1OC,inactive
